Source: patent publication US12679878B2, “CRF2 receptor agonists and their use in therapy” (SANOFI, priority 2020, dated 2026)
Converted amounts (≈) assume the structure as drawn. Read-outs that look alike come from different tables or passages of the source. Starred links: 1 amine or outer side, 2 acyl side, 3 side chain; linkers in the order of their positions; H or OH if unused. Non-standard residues stand in square brackets, D forms with d. Residues, ends and D or L forms follow the SMILES beside them. Groups on a side chain read outwards from the residue. *: point of attachment. C18 diacid = O=C(O)CCCCCCCCCCCCCCCCC(=O)*; γGlu = O=C(O)[C@H](CCC(=O)[*:2])N[*:1]; AEEA = NCCOCCOCC(=O)O; Aib = CC(C)(N)C(=O)O

How the values were obtained:
[1] = tested on: rat CRF2R α receptor; experiment: cAMP agonism at rat CRF2R α receptor in A7R5 rat aortic smooth muscle cells (Example 8); format: cell-based; conditions: cAMP HTRF, A7R5 rat aortic smooth muscle cell line, 0% HSA
Procedure, shortened: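 Thawed cryopreserved A7R5 cells in HBSS/20 mM HEPES (0 or 0.1% HSA) with 2 mM IBMX, 2000 cells/well, were exposed to compound for 30 min at room temperature. cAMP was read by HTRF (665/620 nm ratio) after 1 h with lysis reagents. Activity was normalised to 1000 nM urocortin 2 as 100%, and EC50 was taken as the concentration giving 50% of maximal activation.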

[2] = Physical stability, dynamic light scattering assay (Example 15); format: physicochemical; conditions: Buffer A (100 mM acetate, pH 4.5); for Apparent Rh [nm] 4 weeks / Scattering Intensity (I) [%] 4 weeks: 4 weeks at 40° C.
Experimental: The physical stability of the compounds was also assessed using a dynamic light scattering assay.
In the present study, the physical stability of test compounds was assessed by determining the apparent hydrodynamic radius (Rh), the scattering intensity (I) and mass contribution (M) after synthesis (0 weeks) and after storage for 4 weeks at 40° C.
For each solution of test compound, the hydrodynamic radius Rh and the diffusion constant D (related via the Stokes-Einstein equation) were determined as an average over triplicates. Both parameters were determined at different compound concentrations (e.g., Rh1 and D1: 1 mg/ml and Rh5 and D5: 5 mg/ml, Rh10 and D10: 10 mg/mL) in the same buffer system. The difference of these parameters between low and high peptide concentration is a surrogate for the DLS interaction parameter kD. […] In addition, the hydrodynamic radius Rh and the corresponding Scattering Intensity (%) were determined as an average over duplicates. The target concentration was 300 μM. Therefore, solutions from solid samples were prepared in a buffer system with a concentration of 300 μM compound based on the previously determined % purity.
DLS measurements were performed on a DynaPro Plate Reader I (Wyatt Technology, Santa Barbara, CA, US) with an 837 nm laser light source at a scattering angle of 150°. The data were collected and processed with Dynamics V 7.8.1.3 or 7.8.2.18 software provided by Wyatt Technology.
Hydrodynamic radii were determined with non-negatively constrained least squares (NNLS) methods using DYNALS algorithms with regularization fit. […] Samples were tempered over 1 hour at +25° C. and visually inspected before analysis.
Samples were mixed with the aid of a pipet tip. Measurements were performed in 5 replicates. […] The plate was centrifuged for 2 minutes at 600 rcf. After removing the sealing, the samples were measured at +25° C.

[3] = target: T1, human CRF2α receptor (Homo sapiens, UniProt Q13324); experiment: cAMP agonism at human CRF2 α receptor in TeloHEAC cells (Example 7); format: cell-based; conditions: cAMP HTRF, TeloHEAC cells stably expressing human CRF2 α
T1 construct: expressed in transfected cells; host or cells: TeloHEAC
T1 sequence (Q13324 1-411): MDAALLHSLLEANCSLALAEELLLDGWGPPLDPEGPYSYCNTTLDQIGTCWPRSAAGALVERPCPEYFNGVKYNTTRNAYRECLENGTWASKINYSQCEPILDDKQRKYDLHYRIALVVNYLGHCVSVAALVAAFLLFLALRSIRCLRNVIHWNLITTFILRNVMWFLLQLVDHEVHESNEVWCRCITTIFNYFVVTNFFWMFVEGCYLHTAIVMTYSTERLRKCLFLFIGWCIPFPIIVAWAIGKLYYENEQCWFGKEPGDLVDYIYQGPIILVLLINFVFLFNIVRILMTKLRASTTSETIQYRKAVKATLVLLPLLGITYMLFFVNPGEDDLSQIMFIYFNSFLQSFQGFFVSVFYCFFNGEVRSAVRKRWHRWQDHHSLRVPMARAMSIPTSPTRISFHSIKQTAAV
Procedure, shortened: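 Steps: thaw and wash cells; suspend in 1×HBSS, 20 mM HEPES, 0 or 0.1% HSA, 2 mM IBMX; add compound, 30 min RT; lyse with HTRF reagents, 1 h; read 665/620 nm. EC50 calculated, E% versus 1000 nM UCN2.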

[4] = Solubility in buffer systems by UPLC-UV (Example 13); format: physicochemical
Procedure, shortened: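 The supernatant was diluted 1:10 and quantified by UPLC-UV peak area against a reference standard curve, correcting for sequence-based extinction coefficients.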

[5] = Chemical stability, purity loss by UPLC-UV after 28 days at 40° C. vs 5° C., pH 4.5 acetate buffer (Example 12); format: physicochemical; conditions: 28 days 40° C. vs 5° C.; pH 4.5, 20 mM acetate buffer; 300 μM
Experimental: The chemical stability of the compounds was assessed by storing the compounds under various conditions and then determining the loss of purity by UPLC-UV.
Prior to measuring the chemical stability of a batch of test compound, the purity of the compound was determined through UPLC/MS. For stability testing the target concentration was 300 μM pure compound. Therefore, solutions from solid samples were prepared in a pH 4.5, 20 mM acetate buffer system with a concentration of 300 μM compound based on the previously determined % purity:
At the starting point, UPLC-UV was performed by injection of 2 μl of the undiluted sample. Aliquots were then stored for 28 days at temperatures of 5 and 40° C. […] Then 2 μl samples of the undiluted supernatant were analysed with UPLC-UV. The chemical stability was calculated by the equation: [(purity after 28 days at 5° C.)−(purity after 28 days at 40° C.)]/(purity after 28 days at 5° C.)]×100%. The purity was calculated as: [(peak area compound)/(total peak area)]×100%.

[6] = target: T2, CRF1R receptor (Homo sapiens, UniProt P34998); experiment: cAMP activity at anti-target CRF1R, CRF1R-overexpression CHO cell line (Example 9); format: cell-based; conditions: CRF1R-overexpression CHO cell line
T2 construct: host or cells: CHO-K1 clone 2
T2 sequence (P34998 24-415): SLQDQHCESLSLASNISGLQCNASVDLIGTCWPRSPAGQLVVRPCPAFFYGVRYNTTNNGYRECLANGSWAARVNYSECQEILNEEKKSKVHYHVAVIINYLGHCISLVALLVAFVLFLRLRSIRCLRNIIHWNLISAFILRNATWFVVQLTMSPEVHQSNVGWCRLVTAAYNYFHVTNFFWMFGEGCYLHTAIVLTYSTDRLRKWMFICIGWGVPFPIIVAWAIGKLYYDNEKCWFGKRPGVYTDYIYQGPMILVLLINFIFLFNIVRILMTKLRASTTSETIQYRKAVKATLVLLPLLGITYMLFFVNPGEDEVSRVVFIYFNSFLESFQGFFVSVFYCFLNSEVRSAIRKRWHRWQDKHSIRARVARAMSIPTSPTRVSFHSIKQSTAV
Procedure, shortened: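 cAMP accumulation was read by HTRF after 30 min at room temperature of compound treatment. Cells were cryopreserved CHO cells overexpressing CRF1R, plated at 2000/well in IBMX (2 mM)-containing HBSS/HEPES buffer with 0 or 0.1% HSA. Activity was normalized to 1000 nM UCN2 as 100%.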

[7] = 0% HSA, read-out: EC50 [nM], 0% HSA
[8] = pH 7.4, Solubility in Buffer C [mg/ml]
[9] = 0.1% HSA, read-out: EC50 [nM], 0.1% HSA

| EC50 [1] | Apparent Rh [nm] 0 weeks [2] | Scattering Intensity (I) [%] 0 weeks [2] | Apparent Rh [nm] 4 weeks [2] | Scattering Intensity (I) [%] 4 weeks [2] | EC50 [3, 7] | solubility at 1 h [4, 8] | Relative purity loss [%] [5] | EC50 [3, 9] | solubility at 1 h ([4]; pH 4.5, Solubility in Buffer A [mg/ml]) | solubility at 1 h ([4]; pH 4.5, Solubility in Buffer B [mg/ml]) | EC50 ([6]; 0% HSA) | Emax ([6]; read-out: Emax (%)) | Structure (SMILES) |
| --- | --- | --- | --- | --- | --- | --- | --- | --- | --- | --- | --- | --- | --- |
| 13.3 nM | 1.42 ± 0.08 nm | 88 ± 8% | 1.48 ± 0.11 nm | 98 ± 2% | 1.45 nM | > 9700 µg/mL | 3.65% |  |  |  |  |  | CC[C@H](C)[C@H](N)C(=O)N[C@H](C(=O)N[C@@H](CC(C)C)C(=O)N[C@@H](CO)C(=O)N[C@@H](CC(C)C)C(=O)N[C@@H](CC(=O)O)C(=O)N[C@@H](C(=O)N1CCC[C@H]1C(=O)N[C@H](C(=O)N[C@@H](CCCCN)C(=O)N[C@@H](CC(C)C)C(=O)N[C@@H](CCCCNC(=O)COCCOCCNC(=O)COCCOCCNC(=O)CC[C@H](NC(=O)CCCCCCCCCCCCCCCCC(=O)O)C(=O)O)C(=O)N[C@@H](CCC(N)=O)C(=O)N[C@@H](CCCCN)C(=O)N[C@@H](CC(C)C)C(=O)N[C@@H](CC(C)C)C(=O)N[C@@H](CCCCN)C(=O)N[C@@H](CCC(N)=O)C(=O)N[C@@H](CCC(=O)O)C(=O)N[C@@H](CCCNC(=N)N)C(=O)N[C@@H](CCC(N)=O)C(=O)N[C@@H](CCCNC(=N)N)C(=O)N[C@@H](CCCCN)C(=O)NC(C)(C)C(=O)N[C@@H](CCCNC(=N)N)C(=O)N[C@@H](CCC(=O)O)C(=O)N[C@@H](CCC(N)=O)C(=O)N[C@@H](C)C(=O)N[C@@H](CCC(=O)O)C(=O)N[C@@H](CCCCN)C(=O)N[C@@H](CC(N)=O)C(=O)N[C@@H](CCCCN)C(=O)N[C@@H](CCCNC(=N)N)C(=O)N[C@H](C(=O)N[C@@H](CC(C)C)C(=O)N[C@@H](CCC(=O)O)C(=O)N[C@@H](CCCNC(=N)N)C(=O)N[C@H](C(N)=O)C(C)C)[C@@H](C)CC)[C@@H](C)O)C(C)C)C(C)C [compound 36] (H-IVLSLD[dV]PTKLK([AEEA-AEEA-γGlu-C18 diacid])QKLLKQERQRK[Aib]REQAEKNKRILERV-NH2; N-terminus assumed) |
| 0.26 nM | 2.75 ± 0.19 nm | 86 ± 4% | 2.82 ± 0.11 nm | 84 ± 1% | 0.06 nM | 8200 µg/mL (≈ 1570 µM) | 2.85% | 3.12 nM | > 8600 µg/mL | > 8700 µg/mL | > 1000 nM | 4.38% | CC[C@H](C)[C@H](N)C(=O)N[C@H](C(=O)N[C@@H](CC(C)C)C(=O)N[C@@H](CO)C(=O)N[C@@H](CC(C)C)C(=O)N[C@@H](CC(=O)O)C(=O)N[C@@H](C(=O)N1CCC[C@H]1C(=O)N[C@H](C(=O)N[C@@H](CCCCN)C(=O)N[C@@H](CC(C)C)C(=O)N[C@@H](CCCCNC(=O)COCCOCCNC(=O)COCCOCCNC(=O)CC[C@H](NC(=O)CCCCCCCCCCCCCCCCC(=O)O)C(=O)O)C(=O)N[C@@H](CCC(N)=O)C(=O)N[C@H](C(=O)N[C@@H](CC(C)C)C(=O)N[C@@H](CC(C)C)C(=O)N[C@@H](CCCCN)C(=O)N[C@@H](CCC(N)=O)C(=O)N[C@@H](CCC(=O)O)C(=O)N[C@@H](CCCNC(=N)N)C(=O)N[C@@H](CCC(N)=O)C(=O)N[C@@H](CCCCN)C(=O)N[C@@H](CCCCN)C(=O)N[C@@H](CCC(N)=O)C(=O)N[C@@H](CCCNC(=N)N)C(=O)N[C@@H](CCC(=O)O)C(=O)N[C@@H](CCCCN)C(=O)N[C@@H](C)C(=O)N[C@@H](CCC(=O)O)C(=O)N[C@@H](CCCCN)C(=O)N[C@@H](CC(N)=O)C(=O)N[C@@H](CCCCN)C(=O)N[C@@H](CCC(N)=O)C(=O)N[C@H](C(=O)N[C@@H](CC(C)C)C(=O)N[C@@H](C)C(=O)N[C@@H](CCC(N)=O)C(=O)N[C@H](C(N)=O)C(C)C)[C@@H](C)CC)[C@@H](C)CC)[C@@H](C)CC)C(C)C)C(C)C [compound 138] (H-IVLSLD[dV]PIKLK([AEEA-AEEA-γGlu-C18 diacid])QILLKQERQKKQREKAEKNKQILAQV-NH2; N-terminus assumed) |
| 0.1 nM |  |  |  |  | 0.04 nM |  | 4.30% | 1.27 nM |  |  |  |  | CC[C@H](C)[C@H](N)C(=O)N[C@H](C(=O)N[C@@H](CC(C)C)C(=O)N[C@@H](CO)C(=O)N[C@@H](CC(C)C)C(=O)N[C@@H](CC(=O)O)C(=O)N[C@@H](C(=O)N1CCC[C@H]1C(=O)N[C@H](C(=O)N[C@@H](CCCCN)C(=O)N[C@@H](CC(C)C)C(=O)N[C@@H](CCCCNC(=O)COCCOCCNC(=O)COCCOCCNC(=O)CC[C@H](NC(=O)CCCCCCCCCCCCCCCCC(=O)O)C(=O)O)C(=O)N[C@@H](CCC(N)=O)C(=O)N[C@H](C(=O)N[C@@H](CC(C)C)C(=O)N[C@@H](CC(C)C)C(=O)N[C@@H](CCC(=O)O)C(=O)N[C@@H](CCC(N)=O)C(=O)N[C@@H](C)C(=O)N[C@@H](CCCNC(=N)N)C(=O)N[C@@H](CCC(N)=O)C(=O)N[C@@H](CCCCN)C(=O)NC(C)(C)C(=O)N[C@@H](CCC(N)=O)C(=O)N[C@@H](CCCNC(=N)N)C(=O)N[C@@H](C)C(=O)N[C@@H](CCC(N)=O)C(=O)N[C@@H](C)C(=O)N[C@@H](CCC(=O)O)C(=O)N[C@@H](CCCCN)C(=O)N[C@@H](CC(N)=O)C(=O)N[C@@H](CCCCN)C(=O)N[C@@H](CCCNC(=N)N)C(=O)N[C@H](C(=O)N[C@@H](CC(C)C)C(=O)N[C@@H](CCC(=O)O)C(=O)N[C@@H](CCCNC(=N)N)C(=O)N[C@H](C(N)=O)C(C)C)[C@@H](C)CC)[C@@H](C)CC)[C@@H](C)CC)C(C)C)C(C)C [compound 140] (H-IVLSLD[dV]PIKLK([AEEA-AEEA-γGlu-C18 diacid])QILLEQARQK[Aib]QRAQAEKNKRILERV-NH2; N-terminus assumed) |
